Test results as given in patent US20160081978A1, “PHARMACEUTICAL COMPOSITION CONTAINING LIRIODENDRON TULIPIFERA L. EXTRACT FOR TREATING CHRONIC MYELOGENOUS LEUKEMIA” (CHO DANG PHARM. CO., LTD., priority 2013, published 2016).
pIC50: −log10 of the molar value.

Assays:
Test in all cases: XTT cell viability assay, inhibition of multiplication of leukemia cell line
Assay type in all cases: cell-based
[1] = system: Ba/F3 mother cell line; conditions: 1 mg/ml of CD-200, 1 μM of CD-EPT, 48 hours
Procedure: (§1) For measuring the cell viability indicating the inhibition of multiplication, in vitro XTT assay has been employed. […] To find out the selective inhibition of T315I enzyme variant from BCR-ABL fusion gene, the cell lines have been incubated for 48 hours at 37° C. After incubation, the sample has been treated with XTT formazan (WEL GENE) for 4 hours at 37° C. Finally, the cell viability has been measured using ELISA through the absorbance at 620 nm, 540 nm (FIG. 1).

[2] = system: Ba/F3(BCR/ABL) cell line; conditions: 1 mg/ml of CD-200, 1 μM of CD-EPT, 48 hours
Procedure: as §1

[3] = system: Ba/F3 (BCR/ABL-T315I) cell line
Text: For measuring the cell viability indicating the inhibition of multiplication, in vitro XTT assay has been employed. […] Finally, the cell viability has been measured using ELISA through the absorbance at 620 nm, 540 nm (FIG. 1).

pIC50 ([3]; Ba/F3 (BCR/ABL-T315I) mutant, XTT, 48 hours): 6.10
SMILES: C=C1C(=O)O[C@@H]2/C=C(\C)CC/C=C(\C)C[C@@H](OC(C)=O)[C@@H]12 [CD-EPT, epi-tulipinolide]
inhibition of cell growth (cell viability) [1]: effectively inhibit the cell growth
inhibition of cell growth (cell viability) [2]: cannot significantly inhibit the cell growth
inhibition of cell growth compared to Imatinib ([3]; 1 μM of Imatinib, 1 mg/ml of CD-200, 1 μM of CD-EPT, Ba/F3 (BCR/ABL-T315I) cell line): effective inhibition of cell growth compared to Imatinib
inhibition of cell growth (cell viability) ([3]; 1 mg/ml of CD-200, 1 μM of CD-EPT, 48 hours, XTT, Ba/F3 (BCR/ABL-T315I) cell line): effectively inhibit the cell growth
effective inhibition capability compared to Imatinib ([3]; Ba/F3 (BCR/ABL-T315I) mutant, from IC50 values): 5 times
